Data from article doi:10.1101/2023.04.18.537371v1 (bioRxiv, 2023).
Peptide text beside a SMILES is read from it.

How the values were obtained:
[1] = Metabolism of FC-12738 in SD rat urine, feces and bile; assay type: in vivo; conditions: SC 10 mg/kg FC-12738 single
CYP2D6 = CYP2D6 (Homo sapiens, UniProt P10635); experiment: CYP450 inhibition assay; assay type: in vitro ADME
CYP1A2 = assay type: in vitro ADME; conditions: cryopreserved human hepatocytes, three donors, 0.100 to 15.0 μM, 48 h, 37°C
CYP2B6 = assay type: in vitro ADME; conditions: cryopreserved human hepatocytes, three donors, 0.100 to 15.0 μM, 48 h, 37°C
OATP1B1 = OATP1B1 (Homo sapiens, UniProt Q9Y6L6); experiment: Transporter inhibition in HEK293 cells; assay type: in vitro ADME
OATP1B1, sequence (Q9Y6L6 whole entry, species assumed): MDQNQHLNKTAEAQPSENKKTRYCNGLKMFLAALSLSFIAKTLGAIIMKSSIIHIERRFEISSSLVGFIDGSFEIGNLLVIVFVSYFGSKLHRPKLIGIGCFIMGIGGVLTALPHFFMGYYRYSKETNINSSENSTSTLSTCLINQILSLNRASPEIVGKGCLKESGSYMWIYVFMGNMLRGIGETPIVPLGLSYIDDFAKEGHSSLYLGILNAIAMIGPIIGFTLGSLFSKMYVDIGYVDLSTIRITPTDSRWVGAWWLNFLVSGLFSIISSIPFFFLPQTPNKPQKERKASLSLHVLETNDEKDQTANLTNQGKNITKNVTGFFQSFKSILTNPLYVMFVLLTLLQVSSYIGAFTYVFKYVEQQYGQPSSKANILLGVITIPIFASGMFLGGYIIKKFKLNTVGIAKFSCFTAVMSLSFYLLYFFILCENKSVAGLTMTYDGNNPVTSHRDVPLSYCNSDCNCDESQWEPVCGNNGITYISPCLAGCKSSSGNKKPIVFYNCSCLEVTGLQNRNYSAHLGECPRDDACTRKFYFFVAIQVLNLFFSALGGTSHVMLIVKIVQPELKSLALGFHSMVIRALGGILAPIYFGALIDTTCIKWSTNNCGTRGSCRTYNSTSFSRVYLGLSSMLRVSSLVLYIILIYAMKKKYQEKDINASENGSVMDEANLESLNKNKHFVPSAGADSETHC

CYP2D6, sequence (P10635 whole entry): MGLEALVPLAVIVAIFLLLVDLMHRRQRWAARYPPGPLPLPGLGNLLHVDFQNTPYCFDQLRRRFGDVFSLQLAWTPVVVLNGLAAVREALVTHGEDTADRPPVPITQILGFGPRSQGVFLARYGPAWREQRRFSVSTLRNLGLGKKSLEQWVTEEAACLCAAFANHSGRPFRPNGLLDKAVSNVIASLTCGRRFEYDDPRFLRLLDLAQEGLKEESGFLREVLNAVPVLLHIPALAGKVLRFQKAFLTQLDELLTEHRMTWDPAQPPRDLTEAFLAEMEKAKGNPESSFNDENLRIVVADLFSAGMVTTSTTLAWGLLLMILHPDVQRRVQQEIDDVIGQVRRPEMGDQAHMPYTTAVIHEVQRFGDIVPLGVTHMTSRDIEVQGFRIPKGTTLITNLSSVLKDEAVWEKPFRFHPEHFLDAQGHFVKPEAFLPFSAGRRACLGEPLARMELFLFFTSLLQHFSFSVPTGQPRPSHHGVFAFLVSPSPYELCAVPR

In the case of CC(C)[C@@H](NC(=O)[C@H](N)Cc1ccc(O)cc1)C(=O)N[C@H](CC(=O)O)C(=O)N[C@H](CCCCN)C(=O)N[C@H](CCCNC(=N)N)C(=O)O [FC-12738, (D-Tyr)-(D-Val)-(D-Asp)-(D-Lys)-(D-Arg)] (HELM PEPTIDE1{[dY].[dV].[dD].[dK].[dR]}$$$$V2.0), the “Relative MS abundance (%Total)” value ([1]; male SD rat bile) is reported as 100.00%, the “Relative MS abundance (%Total)” value ([1]; male SD rat feces) is reported as 100.00% and the “Relative MS abundance (%Total)” value ([1]; male SD rat urine) is reported as 99.93%. The IC50 (CYP2D6) was over 100 µM, the “Induction of CYP1A2 (enzyme activity and gene expression)” value (CYP1A2) was “not considered as an inducer” and the “Induction of CYP2B6 (enzyme activity and gene expression)” value (CYP2B6) was “not considered as an inducer”. The IC50 (OATP1B1) was over 100 µM.
